Laboratory results: article PMC11480411, “Mucosal sugars delineate pyrazine vs pyrazinone autoinducer signaling in Klebsiella oxytoca” (Nature Communications, 2024)

Assays:
Experiment in all cases: PRESTO-Tango GPCR screen
Assay type in all cases: cell-based
Details in all cases: 100 µM
ADCYAP1R1 = target: T1, ADCYAP1R1 (Homo sapiens, UniProt P41586)
T1 construct: purchased PRESTO-Tango GPCR kit (Roth lab / Addgene)
Summary of the method: (§1)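 HTLA cells (HEK293 stably expressing β-arrestin-TEV and tTA-luciferase) transiently transfected with GPCR-Tango plasmids, then exposed to compound at 100 μM final for 20 h. Luminescence read after Bright-Glo; activation fold = RLU over PBS control. Dose-response spanned 10^−4 M to 10^−15 M.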

ADRA1B = target: T2, ADRA1B (Homo sapiens, UniProt P35368)
T2 construct: purchased PRESTO-Tango GPCR kit (Roth lab / Addgene)
Summary of the method: as §1

ADRB2 = target: T3, ADRB2 (Homo sapiens, UniProt P07550)
T3 construct: purchased PRESTO-Tango GPCR kit (Roth lab / Addgene)
Summary of the method: as §1

AGTR2 = target: T4, AGTR2 (Homo sapiens, UniProt P50052)
T4 construct: purchased PRESTO-Tango GPCR kit (Roth lab / Addgene)
Summary of the method: as §1

CCR4 = target: T5, CCR4 (Homo sapiens, UniProt P51679)
T5 construct: purchased PRESTO-Tango GPCR kit (Roth lab / Addgene)
Summary of the method: as §1

CHRM1 = target: T6, CHRM1 (Homo sapiens, UniProt P11229)
T6 construct: purchased PRESTO-Tango GPCR kit (Roth lab / Addgene)
Summary of the method: as §1

FFA1 = target: T7, FFA1 (Homo sapiens, UniProt O14842)
T7 construct: purchased PRESTO-Tango GPCR kit (Roth lab / Addgene)
Summary of the method: as §1

FFA3 = target: T8, FFA3 (Homo sapiens, UniProt O14843)
T8 construct: purchased PRESTO-Tango GPCR kit (Roth lab / Addgene)
Summary of the method: as §1

FSHR = target: T9, FSHR (Homo sapiens, UniProt P23945)
T9 construct: purchased PRESTO-Tango GPCR kit (Roth lab / Addgene)
Summary of the method: as §1

GPBA = target: T10, GPBA (Homo sapiens, UniProt Q8TDU6)
T10 construct: purchased PRESTO-Tango GPCR kit (Roth lab / Addgene)
Summary of the method: as §1

GPR132 = target: T11, GPR132 (Homo sapiens, UniProt Q9UNW8)
T11 construct: purchased PRESTO-Tango GPCR kit (Roth lab / Addgene)
Summary of the method: as §1

GPR143 = target: T12, GPR143 (Homo sapiens, UniProt P51810)
T12 construct: purchased PRESTO-Tango GPCR kit (Roth lab / Addgene)
Summary of the method: as §1

GPR15 = target: T13, GPR15 (Homo sapiens, UniProt P49685)
T13 construct: purchased PRESTO-Tango GPCR kit (Roth lab / Addgene)
Summary of the method: as §1

GPR157 = target: T14, GPR157 (Homo sapiens, UniProt Q5UAW9)
T14 construct: purchased PRESTO-Tango GPCR kit (Roth lab / Addgene)
Summary of the method: as §1

GPR182 = target: T15, GPR182 (Homo sapiens, UniProt O15218)
T15 construct: purchased PRESTO-Tango GPCR kit (Roth lab / Addgene)
Summary of the method: as §1

GPR22 = target: T16, GPR22 (Homo sapiens, UniProt Q99680)
T16 construct: purchased PRESTO-Tango GPCR kit (Roth lab / Addgene)
Summary of the method: as §1

GPR45 = target: T17, GPR45 (Homo sapiens, UniProt Q9Y5Y3)
T17 construct: purchased PRESTO-Tango GPCR kit (Roth lab / Addgene)
Summary of the method: as §1

GPR84 = target: T18, GPR84 (Homo sapiens, UniProt Q9NQS5)
T18 construct: purchased PRESTO-Tango GPCR kit (Roth lab / Addgene)
Summary of the method: as §1

GPRC5D = target: T19, GPRC5D (Homo sapiens, UniProt Q9NZD1)
T19 construct: purchased PRESTO-Tango GPCR kit (Roth lab / Addgene)
Summary of the method: as §1

GRM5 = target: T20, GRM5 (Homo sapiens, UniProt P41594)
T20 construct: purchased PRESTO-Tango GPCR kit (Roth lab / Addgene)
Summary of the method: as §1

GRM7 = target: T21, GRM7 (Homo sapiens, UniProt Q14831)
T21 construct: purchased PRESTO-Tango GPCR kit (Roth lab / Addgene)
Summary of the method: as §1

KISSPEPTIN-R = target: T22, KISSPEPTIN-R (Homo sapiens, UniProt Q969F8)
T22 construct: purchased PRESTO-Tango GPCR kit (Roth lab / Addgene)
Summary of the method: as §1

MCHR2 = target: T23, MCHR2 (Homo sapiens, UniProt Q969V1)
T23 construct: purchased PRESTO-Tango GPCR kit (Roth lab / Addgene)
Summary of the method: as §1

MRGPRE = target: T24, MRGPRE (Homo sapiens, UniProt Q86SM8)
T24 construct: purchased PRESTO-Tango GPCR kit (Roth lab / Addgene)
Summary of the method: as §1

MRGPRX4 = target: T25, MRGPRX4 (Homo sapiens, UniProt Q96LA9)
T25 construct: purchased PRESTO-Tango GPCR kit (Roth lab / Addgene)
Summary of the method: as §1

MTNR1B = target: T26, MTNR1B (Homo sapiens, UniProt P49286)
T26 construct: purchased PRESTO-Tango GPCR kit (Roth lab / Addgene)
Summary of the method: as §1

OPN5 = target: T27, OPN5 (Homo sapiens, UniProt Q6U736)
T27 construct: purchased PRESTO-Tango GPCR kit (Roth lab / Addgene)
Summary of the method: as §1

OXTR = target: T28, OXTR (Homo sapiens, UniProt P30559)
T28 construct: purchased PRESTO-Tango GPCR kit (Roth lab / Addgene)
Summary of the method: as §1

P2RY14 = target: T29, P2RY14 (Homo sapiens, UniProt Q15391)
T29 construct: purchased PRESTO-Tango GPCR kit (Roth lab / Addgene)
Summary of the method: as §1

P2RY4 = target: T30, P2RY4 (Homo sapiens, UniProt P51582)
T30 construct: purchased PRESTO-Tango GPCR kit (Roth lab / Addgene)
Summary of the method: as §1

PTGER3 = target: T31, PTGER3 (Homo sapiens, UniProt P43115)
T31 construct: purchased PRESTO-Tango GPCR kit (Roth lab / Addgene)
Summary of the method: as §1

RXFP3 = target: T32, RXFP3 (Homo sapiens, UniProt Q9NSD7)
T32 construct: purchased PRESTO-Tango GPCR kit (Roth lab / Addgene)
Summary of the method: as §1

TACR1 = target: T33, TACR1 (Homo sapiens, UniProt P25103)
T33 construct: purchased PRESTO-Tango GPCR kit (Roth lab / Addgene)
Summary of the method: as §1

TACR3 = target: T34, TACR3 (Homo sapiens, UniProt P29371)
T34 construct: purchased PRESTO-Tango GPCR kit (Roth lab / Addgene)
Summary of the method: as §1

VIPR1 = target: T35, VIPR1 (Homo sapiens, UniProt P32241)
T35 construct: purchased PRESTO-Tango GPCR kit (Roth lab / Addgene)
Summary of the method: as §1

T25 sequence (Q96LA9 whole entry): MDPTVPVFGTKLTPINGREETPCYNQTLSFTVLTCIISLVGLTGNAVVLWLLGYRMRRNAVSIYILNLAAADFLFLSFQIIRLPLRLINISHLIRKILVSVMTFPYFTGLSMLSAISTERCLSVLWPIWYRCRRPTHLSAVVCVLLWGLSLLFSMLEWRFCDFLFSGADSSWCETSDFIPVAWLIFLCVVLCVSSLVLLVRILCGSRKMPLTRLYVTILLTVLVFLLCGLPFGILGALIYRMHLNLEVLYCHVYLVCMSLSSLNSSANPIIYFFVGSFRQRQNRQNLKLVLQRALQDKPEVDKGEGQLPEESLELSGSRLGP
T22 sequence (Q969F8 whole entry): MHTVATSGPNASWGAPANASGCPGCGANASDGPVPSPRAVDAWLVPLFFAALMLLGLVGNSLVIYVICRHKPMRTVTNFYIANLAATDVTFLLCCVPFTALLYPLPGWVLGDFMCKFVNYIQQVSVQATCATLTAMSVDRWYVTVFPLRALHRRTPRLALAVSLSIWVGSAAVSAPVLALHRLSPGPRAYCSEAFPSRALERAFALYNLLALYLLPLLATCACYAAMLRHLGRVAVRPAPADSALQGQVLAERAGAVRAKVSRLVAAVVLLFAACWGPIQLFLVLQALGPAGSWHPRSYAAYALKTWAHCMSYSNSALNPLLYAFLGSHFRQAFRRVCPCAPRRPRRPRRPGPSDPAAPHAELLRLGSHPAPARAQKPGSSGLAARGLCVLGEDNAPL
T1 sequence (P41586 21-468): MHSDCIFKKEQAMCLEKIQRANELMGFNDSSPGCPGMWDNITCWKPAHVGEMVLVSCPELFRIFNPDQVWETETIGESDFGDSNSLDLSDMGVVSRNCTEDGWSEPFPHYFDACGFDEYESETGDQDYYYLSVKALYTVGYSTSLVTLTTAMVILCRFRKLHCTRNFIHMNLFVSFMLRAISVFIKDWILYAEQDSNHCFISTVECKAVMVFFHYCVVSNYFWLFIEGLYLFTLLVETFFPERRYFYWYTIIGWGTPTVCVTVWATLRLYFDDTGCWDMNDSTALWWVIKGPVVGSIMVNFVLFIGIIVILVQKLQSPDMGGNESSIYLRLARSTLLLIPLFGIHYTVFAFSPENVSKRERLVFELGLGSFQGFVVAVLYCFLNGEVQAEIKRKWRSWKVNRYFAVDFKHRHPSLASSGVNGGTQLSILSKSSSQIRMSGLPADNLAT
T34 sequence (P29371 whole entry): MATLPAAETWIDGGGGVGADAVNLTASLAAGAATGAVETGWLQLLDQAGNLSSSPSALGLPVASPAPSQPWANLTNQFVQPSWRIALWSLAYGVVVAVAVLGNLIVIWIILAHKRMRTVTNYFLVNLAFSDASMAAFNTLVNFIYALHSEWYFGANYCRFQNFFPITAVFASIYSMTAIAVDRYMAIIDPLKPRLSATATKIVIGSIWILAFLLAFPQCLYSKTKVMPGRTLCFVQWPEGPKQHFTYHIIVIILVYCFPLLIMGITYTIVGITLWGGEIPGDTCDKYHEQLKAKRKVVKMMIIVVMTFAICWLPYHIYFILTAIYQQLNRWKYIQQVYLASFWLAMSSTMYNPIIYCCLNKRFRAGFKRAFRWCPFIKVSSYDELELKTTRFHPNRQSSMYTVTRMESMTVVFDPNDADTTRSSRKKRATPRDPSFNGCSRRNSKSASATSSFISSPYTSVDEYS
T9 sequence (P23945 18-695): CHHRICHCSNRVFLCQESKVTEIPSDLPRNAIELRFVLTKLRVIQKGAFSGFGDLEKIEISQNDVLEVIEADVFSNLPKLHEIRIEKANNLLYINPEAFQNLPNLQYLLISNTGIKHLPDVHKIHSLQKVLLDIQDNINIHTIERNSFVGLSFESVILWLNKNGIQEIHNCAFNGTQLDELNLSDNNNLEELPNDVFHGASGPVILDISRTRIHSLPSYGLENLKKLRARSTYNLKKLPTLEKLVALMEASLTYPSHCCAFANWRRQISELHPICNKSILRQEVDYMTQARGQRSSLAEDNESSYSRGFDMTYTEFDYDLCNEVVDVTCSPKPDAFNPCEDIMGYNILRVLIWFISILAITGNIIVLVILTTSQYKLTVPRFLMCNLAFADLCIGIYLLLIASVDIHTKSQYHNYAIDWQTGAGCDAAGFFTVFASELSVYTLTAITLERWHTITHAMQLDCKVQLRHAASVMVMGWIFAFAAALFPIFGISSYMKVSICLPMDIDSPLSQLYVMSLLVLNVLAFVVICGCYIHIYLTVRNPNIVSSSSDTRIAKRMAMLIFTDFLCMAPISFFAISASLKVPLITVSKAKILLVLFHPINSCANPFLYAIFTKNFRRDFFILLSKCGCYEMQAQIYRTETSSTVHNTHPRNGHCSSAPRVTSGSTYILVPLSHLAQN
T26 sequence (P49286 whole entry): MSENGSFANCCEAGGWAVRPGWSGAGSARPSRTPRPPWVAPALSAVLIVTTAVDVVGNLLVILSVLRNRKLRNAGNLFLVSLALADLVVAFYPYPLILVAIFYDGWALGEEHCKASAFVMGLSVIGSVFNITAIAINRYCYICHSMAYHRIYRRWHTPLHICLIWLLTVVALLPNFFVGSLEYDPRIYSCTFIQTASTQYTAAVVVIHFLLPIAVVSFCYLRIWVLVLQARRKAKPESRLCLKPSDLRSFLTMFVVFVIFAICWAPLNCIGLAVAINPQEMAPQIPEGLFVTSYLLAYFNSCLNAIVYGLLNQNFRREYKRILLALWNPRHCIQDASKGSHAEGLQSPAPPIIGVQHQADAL
T29 sequence (Q15391 whole entry, one chain of several): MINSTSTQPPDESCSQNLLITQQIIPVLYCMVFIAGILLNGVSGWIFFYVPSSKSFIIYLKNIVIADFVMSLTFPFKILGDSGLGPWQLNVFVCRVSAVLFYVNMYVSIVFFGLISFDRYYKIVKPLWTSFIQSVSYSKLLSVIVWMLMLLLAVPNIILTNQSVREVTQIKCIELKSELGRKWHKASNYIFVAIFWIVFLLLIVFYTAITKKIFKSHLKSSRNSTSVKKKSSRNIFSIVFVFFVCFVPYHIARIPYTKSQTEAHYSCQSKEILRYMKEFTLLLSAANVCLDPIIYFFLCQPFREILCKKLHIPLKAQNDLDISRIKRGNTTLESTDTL
T30 sequence (P51582 whole entry): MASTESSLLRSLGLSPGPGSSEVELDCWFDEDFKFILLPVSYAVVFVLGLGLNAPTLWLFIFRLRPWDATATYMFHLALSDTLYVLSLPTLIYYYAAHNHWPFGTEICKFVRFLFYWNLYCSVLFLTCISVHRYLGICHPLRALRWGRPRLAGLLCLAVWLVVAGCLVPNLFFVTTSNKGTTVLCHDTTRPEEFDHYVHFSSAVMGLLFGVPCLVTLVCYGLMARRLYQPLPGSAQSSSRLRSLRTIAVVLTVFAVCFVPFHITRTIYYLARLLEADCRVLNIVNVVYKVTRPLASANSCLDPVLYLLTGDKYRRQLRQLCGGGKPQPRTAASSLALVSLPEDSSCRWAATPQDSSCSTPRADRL
T17 sequence (Q9Y5Y3 whole entry): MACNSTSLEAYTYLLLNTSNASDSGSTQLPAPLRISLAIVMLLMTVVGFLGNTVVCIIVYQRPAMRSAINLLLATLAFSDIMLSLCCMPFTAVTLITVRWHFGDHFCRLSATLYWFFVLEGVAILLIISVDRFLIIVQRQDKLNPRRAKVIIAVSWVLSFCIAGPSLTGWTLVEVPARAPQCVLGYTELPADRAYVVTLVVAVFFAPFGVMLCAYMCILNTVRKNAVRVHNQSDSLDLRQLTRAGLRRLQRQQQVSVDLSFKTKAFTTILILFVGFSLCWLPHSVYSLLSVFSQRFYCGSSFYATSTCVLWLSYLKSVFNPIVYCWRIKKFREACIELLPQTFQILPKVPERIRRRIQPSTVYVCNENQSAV
T7 sequence (O14842 whole entry): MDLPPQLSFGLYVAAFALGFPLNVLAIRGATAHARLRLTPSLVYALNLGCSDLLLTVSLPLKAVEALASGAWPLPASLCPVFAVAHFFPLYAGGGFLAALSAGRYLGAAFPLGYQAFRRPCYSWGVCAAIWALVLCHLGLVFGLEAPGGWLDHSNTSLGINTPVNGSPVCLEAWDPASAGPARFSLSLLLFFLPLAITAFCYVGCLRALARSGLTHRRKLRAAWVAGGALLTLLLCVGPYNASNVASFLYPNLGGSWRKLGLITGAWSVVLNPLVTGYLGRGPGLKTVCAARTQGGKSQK
T2 sequence (P35368 whole entry): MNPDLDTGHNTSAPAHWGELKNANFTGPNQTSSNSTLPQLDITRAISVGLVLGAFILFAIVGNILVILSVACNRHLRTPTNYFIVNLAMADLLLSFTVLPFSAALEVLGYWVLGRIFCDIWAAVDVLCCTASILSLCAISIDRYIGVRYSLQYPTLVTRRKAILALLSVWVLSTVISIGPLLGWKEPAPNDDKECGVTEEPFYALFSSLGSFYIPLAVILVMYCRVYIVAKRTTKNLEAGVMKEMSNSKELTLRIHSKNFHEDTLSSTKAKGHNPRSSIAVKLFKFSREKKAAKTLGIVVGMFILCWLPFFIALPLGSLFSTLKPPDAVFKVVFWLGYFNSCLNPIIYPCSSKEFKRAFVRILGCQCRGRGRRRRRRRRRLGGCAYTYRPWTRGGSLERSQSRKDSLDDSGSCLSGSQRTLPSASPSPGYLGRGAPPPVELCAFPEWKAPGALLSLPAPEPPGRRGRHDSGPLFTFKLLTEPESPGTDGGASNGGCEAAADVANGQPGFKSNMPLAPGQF
T27 sequence (Q6U736 whole entry): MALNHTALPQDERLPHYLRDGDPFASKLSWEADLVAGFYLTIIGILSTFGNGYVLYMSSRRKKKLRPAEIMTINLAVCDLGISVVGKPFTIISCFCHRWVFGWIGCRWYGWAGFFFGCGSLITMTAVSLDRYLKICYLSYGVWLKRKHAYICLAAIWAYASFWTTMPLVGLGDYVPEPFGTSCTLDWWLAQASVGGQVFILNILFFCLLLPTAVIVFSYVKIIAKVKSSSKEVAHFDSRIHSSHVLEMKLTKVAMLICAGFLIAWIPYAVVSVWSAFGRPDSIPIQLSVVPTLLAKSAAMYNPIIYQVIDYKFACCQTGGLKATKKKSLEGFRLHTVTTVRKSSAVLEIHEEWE

| Structure (SMILES) | GPCR activation (heatmap value) (ADCYAP1R1) | GPCR activation (heatmap value) (ADRA1B) | GPCR activation (heatmap value) (ADRB2) | GPCR activation (heatmap value) (AGTR2) | GPCR activation (heatmap value) (CCR4) | GPCR activation (heatmap value) (CHRM1) | GPCR activation (heatmap value) (FFA1) | GPCR activation (heatmap value) (FFA3) | GPCR activation (heatmap value) (FSHR) | GPCR activation (heatmap value) (GPBA) | GPCR activation (heatmap value) (GPR132) | GPCR activation (heatmap value) (GPR143) | GPCR activation (heatmap value) (GPR15) | GPCR activation (heatmap value) (GPR157) | GPCR activation (heatmap value) (GPR182) | GPCR activation (heatmap value) (GPR22) | GPCR activation (heatmap value) (GPR45) | GPCR activation (heatmap value) (GPR84) | GPCR activation (heatmap value) (GPRC5D) | GPCR activation (heatmap value) (GRM5) | further results |
| --- | --- | --- | --- | --- | --- | --- | --- | --- | --- | --- | --- | --- | --- | --- | --- | --- | --- | --- | --- | --- | --- |
| CC(C)Cc1ncc(CCCNC(=N)N)[nH]c1=O [compound 3] | 0.214 | 0.1702 | 0.6209 | -0.3239 | -0.299 | -1.184 | -0.7235 | -0.2613 | 0.2361 | -0.136 | 0.3578 | 0.5685 | -0.8181 | 0.4215 | -0.4224 | -1.5748 | 0.4781 | -0.1947 | -1.121 | 0.02679 | GPCR activation (heatmap value) (GRM7): 0.04754; GPCR activation (heatmap value) (KISSPEPTIN-R): 0.3199; GPCR activation (heatmap value) (MCHR2): -1.212; GPCR activation (heatmap value) (MRGPRE): 1.264; GPCR activation (heatmap value) (MRGPRX4): 0.07015; GPCR activation (heatmap value) (MTNR1B): -0.5682; GPCR activation (heatmap value) (OPN5): -1.123; GPCR activation (heatmap value) (OXTR): 0.1075; GPCR activation (heatmap value) (P2RY14): 0.6085; GPCR activation (heatmap value) (P2RY4): 0.7544; GPCR activation (heatmap value) (PTGER3): 0.03461; GPCR activation (heatmap value) (RXFP3): -0.5079; GPCR activation (heatmap value) (TACR1): -0.6956; GPCR activation (heatmap value) (TACR3): -0.7714; GPCR activation (heatmap value) (VIPR1): 0.4975 |
| CC(C)Cc1ncc(CCCCNC(=N)N)[nH]c1=O [3-Homo] | 0.1231 | -0.4471 | -0.1039 | 0.1974 | 0.4296 | -1.546 | -0.171 | -0.4191 | -0.01288 | -0.06085 | 0.4638 | -0.07136 | -0.3204 | 0.207 | -0.244 | -1.099 | -0.6461 | 0.1656 | 0.05555 | -0.9141 | GPCR activation (heatmap value) (GRM7): -0.0693; GPCR activation (heatmap value) (KISSPEPTIN-R): 1.206; GPCR activation (heatmap value) (MCHR2): -0.05748; GPCR activation (heatmap value) (MRGPRE): 0.8539; GPCR activation (heatmap value) (MRGPRX4): 0.4562; GPCR activation (heatmap value) (MTNR1B): 0.08839; GPCR activation (heatmap value) (OPN5): -0.4496; GPCR activation (heatmap value) (OXTR): 0.4883; GPCR activation (heatmap value) (P2RY14): 0.07991; GPCR activation (heatmap value) (P2RY4): 0.7408; GPCR activation (heatmap value) (PTGER3): -1.204; GPCR activation (heatmap value) (RXFP3): 0.07695; GPCR activation (heatmap value) (TACR1): -0.4178; GPCR activation (heatmap value) (TACR3): -0.1118; GPCR activation (heatmap value) (VIPR1): -0.06399 |
